Reference: patent publication US11008612B2, “Methods and apparatus for single molecule sequencing using energy transfer detection” (Life Technologies Corporation, priority 2009, dated 2021)

Columns and labels:
[1] = solubility of core nanoparticles in solvents
Source text: The solubility of the aliquoted samples was observed. […] Six of the aliquoted samples were centrifuged and the resulting clear, colorless supernatants were discarded.

[2] = test system: duplex Alexa fluor 546 dye-labeled-DNA template and AF647-C6-dG6P; assay: Stopped-flow measurements of tpol (nucleotide incorporation kinetics); type: biochemical; conditions: 330 nM polymerase, 100 nM template/primer duplex, 7 μM AF647-C6-dG6P, 2 mM MnCl2; tpol = 1/kpol
Experimental: The kinetics of nucleotide incorporation by B103 (exo-) (SEQ ID NO:5) and an H370R mutant (SEQ ID NO:3) DNA polymerases were measured in an Applied Photophysics SX20 stopped-flow spectrometer by monitoring changes in fluorescence from a duplex Alexa fluor 546 dye-labeled-DNA template following the mixing of the enzyme-DNA complex with dye-labeled nucleotides (AF647-C6-dG6P) in the reaction buffer containing 50 mM Tris-HCl, pH 7.5, 50 mM NaCl, 4 mM DTT, 0.2% BSA, and 2 mM MnCl2. The reactions included 330 nM recombinant DNA polymerase, 100 nM template/primer duplex, and 7 μM labeled nucleotides.
The averaged (5 traces) stopped-flow fluorescence traces (>1.5 ms) were fitted with a double exponential equation (1) to extrapolate the rates of the nucleotide binding and product release, Fluorescence=A1*e^−k^1^*t+A2*e^−k^pol^*t+C (equation 1) where A1 and A2 represent corresponding fluorescence amplitudes, C is an offset constant, and k1 and kpol are the observed rate constants for the fast and slow phases of the fluorescence transition, respectively. The dye-labeled nucleotides comprise terminal-phosphate-labeled nucleotides having an alkyl linker with a functional amine group attached to the dye. The stopped-flow techniques for measuring tpol (1/kpol) followed the techniques described by M P Roettger (2008 Biochemistry 47:9718-9727; M. Bakhtina 2009 Biochemistry 48:3197-320). 2) B103 Polymerase: Stopped-Flow Measurements of t−1

[3] = test system: [enzyme⋅DNA⋅labeled nucleotide] ternary complex (AF647-C6-dG6P); assay: Stopped-flow measurements of t−1 (nucleotide dissociation from ternary complex); type: binding; conditions: ternary complex mixed with 50 μM cognate non-labeled dNTP, 2 mM MnCl2; t−1 = 1/k−1
Experimental: The rate of the nucleotide dissociation (k−1) from the ternary complex of [enzyme⋅DNA⋅nucleotide] was measured in an Applied Photophysics SX20 stopped-flow spectrometer by monitoring changes […] a duplex Alexa fluor 546 dye-labeled-DNA template following the mixing of the [enzyme⋅DNA⋅labeled nucleotide] ternary complex with 50 μM cognate non-labeled deoxynucleoside triphosphate in a buffer containing 50 mM Tris-HCl (pH 7.5), 50 mM NaCl, 4 mM DTT, 0.2% BSA, and 2 mM MnCl2.
The ternary complexes were prepared using: 330 nM polymerase, 100 nM template/primer duplex, and 7 μM terminal phosphate-labeled nucleotides (AF647-C6-dG6P).
The averaged stopped-flow fluorescence traces (>1.5 msec) were fitted with a single exponential equation (2) to extrapolate the rate of the nucleotide dissociation (k−1) from the [enzyme⋅DNA⋅nucleotide] ternary complex. Fluorescence=A1*e^−k^−1^*t+C (equation 2) where A1 represents the corresponding fluorescence amplitude, C is an offset constant, and k−1 and the observed rate constants for the fluorescence transition. The stopped-flow techniques for measuring t−1 (1/k−1) followed the techniques described by M. Bakhtina (2009 Biochemistry 48:3197-3208).

template = template extension activity (DNA extension assay); type: biochemical; conditions: stock unconjugated polymerase
Experimental: A 150 nM master mix solution of a labeled hairpin oligonucleotide 221 was prepared by diluting the appropriate quantity of a 50 μM stock solution with extension buffer (50 mM TRIS, pH 8, 50 mM NaCl, 10 mM MgCl2). 450 μl of a master mix was prepared for each sample being tested.
The conjugate being tested was diluted in 450 μl of the master mix such that the final concentration of the conjugate is in the range of 10 nM to 50 nM. The positive control samples of free PKAΦ29 were similarly diluted. The sample solution was deposited in four microtiter plate wells, at 100 μl/well.
The microtiter plate was placed in a plate reader (Molecular Devices, SpectraMax M5) and set up to monitor the fluorescence as function of time (excitation 490 nm, emission 535 nm, cutoff filter 515 nm). Just prior to starting the plate reader, 2 μl of 1 mM dATP was added to each of two microtiter wells to start the extension reaction. The other two microtiter wells with sample represent no extension controls. The plate was read for an hour or until the samples reached saturation. […]

t−1 [3]	Compound	solubility in solvents [1]	tpol [2]	DNA extension assay (template)
43	H370R: H370R mutant B103 DNA polymerase (SEQ ID NO:3)		17	
20	K509Y: B103 polymerase with amino acid substitution K509Y		10	

More lines, now with the values behind:

Compound	t−1 [3]	solubility in solvents [1]	tpol [2]	DNA extension assay (template)
CCOC(=O)CCCCCP(=O)(O)O [6-ethoxy-6-oxohexylphosphonic acid]		not soluble in hexane		
B103 (exo-): B103 (exo-) DNA polymerase (SEQ ID NO:5)	16		14	
stock HP1-B104-H370R (exo-) polymerase: stock His-tagged HP1-B103 H370R exo- polymerase (SEQ ID NO:3)				0.29 base/sec/enzyme
